# Laboratory results: PMC11579512, “Deoxybouvardin-glucoside induces apoptosis in non-small cell lung cancer cells by targeting EGFR/MET and AKT signaling pathway” (EXCLI Journal, 2024)
# Like-named read-outs stand apart in the source and are kept apart here.
# Legend:
# Bad = assay: Immunoblot Bad in HCC827 and HCC827GR cells; assay type: cell-based, human
# Description: HaCaT cells were grown in DMEM, whereas HCC827 and HCC827GR cells were grown in RPMI 1640. All culture media were supplemented with FBS (10 %) and P/S (1 %), and the cells were grown at 37 °C in 5 % CO2.
# Cells were lysed in RIPA buffer, and protein concentration was determined using a Bio-Rad DC Protein Assay kit (Bio-Rad, Hercules, CA, USA). Protein samples from the cell lysates were resolved by sodium dodecyl sulfate-polyacrylamide gel electrophoresis and then transferred onto polyvinylidene fluoride membranes. The membranes were blocked with 3 % or 5 % skim milk and then incubated at 4 °C overnight with the indicated primary antibodies, followed by the corresponding horseradish peroxidase-conjugated secondary antibodies at RT for 2 h. Protein bands were visualized using western blotting luminol reagent solution and ImageQuant LAS 500 (GE Healthcare, Uppsala, Sweden). The density of the bands was quantified using ImageJ software (NIH, Bethesda, MD, USA).
# HCC827 cells = tested on: HCC827 cells
# Description: (§1) All culture media were supplemented with FBS (10 %) and P/S (1 %), and the cells were grown at 37 °C in 5 % CO2.
# (§2) The cells were treated with MTT and incubated for 2 h. The supernatants were removed, and the remaining formazan crystals were dissolved in DMSO before absorbance measurement at 570 nm using a Multiscan GO spectrophotometer (Thermo Fisher Scientific, Vantaa, Finland).
# HCC827GR cells = tested on: HCC827GR cells
# Description: as §1, §2
# HaCaT cells = tested on: HaCaT cells
# Description: as §1, §2
smiles,measurement,setting,value
"COc1ccc(C[C@H]2C(=O)N[C@@H](C)C(=O)N(C)[C@H]3Cc4ccc(cc4)Oc4cc(ccc4O[C@@H]4O[C@H](CO)[C@@H](O)[C@H](O)[C@H]4O)C[C@@H](C(=O)N[C@H](C)C(=O)N[C@@H](C)C(=O)N2C)N(C)C3=O)cc1 [DBG, deoxybouvardin glucoside]",Bad protein Ratio,"Bad; HCC827, DBG 12 nM (reference of the ratio, 1.00), DBG 0 nM 0.19",1.00
same,Bad protein/actin,"Bad; HCC827, DBG 12 nM, DBG 0 nM 0.16",0.82
same,Bad protein/actin,"Bad; HCC827GR, DBG 3 nM, DBG 0 nM 0.28",0.22
same,Bad protein Ratio,"Bad; HCC827GR, DBG 3 nM, relative to DBG 12 nM = 1.00, DBG 0 nM 0.49",0.39
same,Bad protein/actin,"Bad; HCC827GR, DBG 6 nM, DBG 0 nM 0.28",0.59
same,Bad protein Ratio,"Bad; HCC827GR, DBG 6 nM, relative to DBG 12 nM = 1.00, DBG 0 nM 0.49",1.03
same,Bad protein Ratio,"Bad; HCC827GR, DBG 12 nM (reference of the ratio, 1.00), DBG 0 nM 0.49",1.00
same,Bad protein/actin,"Bad; HCC827GR, DBG 12 nM, DBG 0 nM 0.28",0.57
same,level of Bad,"Bad; NSCLC cells, DBG",increased
same,cell viability,"HCC827 cells; 24 h, DBG 3 nM, replicate 1",86.91%
same,cell viability,"HCC827 cells; 24 h, DBG 3 nM, replicate 2",83.02%
same,cell viability,"HCC827 cells; 24 h, DBG 3 nM, replicate 3",81.91%
same,cell viability,"HCC827 cells; 24 h, DBG 6 nM, replicate 1",73.81%
same,cell viability,"HCC827 cells; 24 h, DBG 6 nM, replicate 2",74.94%
same,cell viability,"HCC827 cells; 24 h, DBG 6 nM, replicate 3",75.18%
same,cell viability,"HCC827 cells; 24 h, DBG 12 nM, replicate 1",63.61%
same,cell viability,"HCC827 cells; 24 h, DBG 12 nM, replicate 2",64.36%
same,cell viability,"HCC827 cells; 24 h, DBG 12 nM, replicate 3",66.17%
same,IC50,HCC827 cells; 48 h,8.6 nM
same,cell viability,"HCC827 cells; 48 h, DBG 3 nM, replicate 1",82.82%
same,cell viability,"HCC827 cells; 48 h, DBG 3 nM, replicate 2",81.25%
same,cell viability,"HCC827 cells; 48 h, DBG 3 nM, replicate 3",79.60%
same,cell viability,"HCC827 cells; 48 h, DBG 6 nM, replicate 1",60.78%
same,cell viability,"HCC827 cells; 48 h, DBG 6 nM, replicate 2",58.53%
same,cell viability,"HCC827 cells; 48 h, DBG 6 nM, replicate 3",60.97%
same,cell viability,"HCC827 cells; 48 h, DBG 12 nM, replicate 1",37.02%
same,cell viability,"HCC827 cells; 48 h, DBG 12 nM, replicate 2",36.88%
same,cell viability,"HCC827 cells; 48 h, DBG 12 nM, replicate 3",36.42%
same,"viability, in words","HCC827 cells; DBG 3, 6, 12 nM",suppressed the viability
same,cell viability,"HCC827GR cells; 24 h, DBG 3 nM, replicate 1",88.10%
same,cell viability,"HCC827GR cells; 24 h, DBG 3 nM, replicate 2",92.63%
same,cell viability,"HCC827GR cells; 24 h, DBG 3 nM, replicate 3",91.95%
same,cell viability,"HCC827GR cells; 24 h, DBG 6 nM, replicate 1",81.14%
same,cell viability,"HCC827GR cells; 24 h, DBG 6 nM, replicate 2",86.21%
same,cell viability,"HCC827GR cells; 24 h, DBG 6 nM, replicate 3",84.35%
same,cell viability,"HCC827GR cells; 24 h, DBG 12 nM, replicate 1",77.73%
same,cell viability,"HCC827GR cells; 24 h, DBG 12 nM, replicate 2",74.83%
same,cell viability,"HCC827GR cells; 24 h, DBG 12 nM, replicate 3",73.57%
same,IC50,HCC827GR cells; 48 h,8.65 nM
same,cell viability,"HCC827GR cells; 48 h, DBG 3 nM, replicate 1",81.02%
same,cell viability,"HCC827GR cells; 48 h, DBG 3 nM, replicate 2",78.86%
same,cell viability,"HCC827GR cells; 48 h, DBG 3 nM, replicate 3",79.86%
same,cell viability,"HCC827GR cells; 48 h, DBG 6 nM, replicate 1",59.60%
same,cell viability,"HCC827GR cells; 48 h, DBG 6 nM, replicate 2",58.31%
same,cell viability,"HCC827GR cells; 48 h, DBG 6 nM, replicate 3",59.16%
same,cell viability,"HCC827GR cells; 48 h, DBG 12 nM, replicate 1",38.12%
same,cell viability,"HCC827GR cells; 48 h, DBG 12 nM, replicate 2",38.18%
same,cell viability,"HCC827GR cells; 48 h, DBG 12 nM, replicate 3",39.51%
same,"viability, in words","HCC827GR cells; DBG 3, 6, 12 nM",suppressed the viability
same,cell viability,"HaCaT cells; 24 h, DBG 3 nM, replicate 1",103.33%
same,cell viability,"HaCaT cells; 24 h, DBG 3 nM, replicate 2",102.45%
same,cell viability,"HaCaT cells; 24 h, DBG 3 nM, replicate 3",101.31%
same,cell viability,"HaCaT cells; 24 h, DBG 6 nM, replicate 1",101.02%
same,cell viability,"HaCaT cells; 24 h, DBG 6 nM, replicate 2",102.90%
same,cell viability,"HaCaT cells; 24 h, DBG 6 nM, replicate 3",101.77%
same,cell viability,"HaCaT cells; 24 h, DBG 12 nM, replicate 1",101.52%
same,cell viability,"HaCaT cells; 24 h, DBG 12 nM, replicate 2",102.50%
same,cell viability,"HaCaT cells; 24 h, DBG 12 nM, replicate 3",100.11%
same,cell viability,"HaCaT cells; 48 h, DBG 3 nM, replicate 1",101.48%
same,cell viability,"HaCaT cells; 48 h, DBG 3 nM, replicate 2",104.66%
same,cell viability,"HaCaT cells; 48 h, DBG 3 nM, replicate 3",100.09%
same,cell viability,"HaCaT cells; 48 h, DBG 6 nM, replicate 1",97.99%
same,cell viability,"HaCaT cells; 48 h, DBG 6 nM, replicate 2",98.42%
same,cell viability,"HaCaT cells; 48 h, DBG 6 nM, replicate 3",101.29%
same,cell viability,"HaCaT cells; 48 h, DBG 12 nM, replicate 1",98.16%
same,cell viability,"HaCaT cells; 48 h, DBG 12 nM, replicate 2",94.89%
same,cell viability,"HaCaT cells; 48 h, DBG 12 nM, replicate 3",94.68%
same,"viability, in words","HaCaT cells; DBG 3, 6, 12 nM",did not affect
